From ChEMBL document CHEMBL3045186, “Assessments of crop losses in rice ecosystems due to stem borer damage (Lepidoptera: Pyralidae)” (2006)

Assays:
Format in all cases: functional
Lepidoptera [1] = test: Insecticidal activity against Lepidoptera infected rice plant assessed as increase in grain yield at 1 kg ai/ha applied as granules on 30 to 50 days post planting (reference value: 28%)
Lepidoptera [2] = test: Insecticidal activity against Lepidoptera infected rice plant assessed as white earhead damage at 1 kg ai/ha applied as granules on 30 to 50 days post planting (reference value: 12.17%)
Lepidoptera [3] = test: Insecticidal activity against Lepidoptera infected rice plant assessed as dead heart damage at 1 kg ai/ha applied as granules on 30 to 50 days post planting (reference value: 11.87%)
Lepidoptera [4] = test: Insecticidal activity against Lepidoptera infected rice plant assessed as increase in grain yield at 0.75 kg ai/ha applied as emulsified concentrates through foliar spray on 30 to 50 days post planting (reference value: 28%)
Lepidoptera [5] = test: Insecticidal activity against Lepidoptera infected rice plant assessed as white earhead damage at 0.75 kg ai/ha applied as emulsified concentrates through foliar spray on 30 to 50 days post planting (reference value: 12.17%)
Lepidoptera [6] = test: Insecticidal activity against Lepidoptera infected rice plant assessed as dead heart damage at 0.75 kg ai/ha applied as emulsified concentrates through foliar spray on 30 to 50 days post planting (reference value: 11.87%)
Lepidoptera [7] = test: Insecticidal activity against Lepidoptera infected rice plant assessed as dead heart damage (reference value: 11.87%)
Lepidoptera [8] = test: Insecticidal activity against Lepidoptera infected rice plant assessed as white earhead damage (reference value: 12.17%)
Lepidoptera [9] = test: Insecticidal activity against Lepidoptera infected rice plant assessed as increase in grain yield (reference value: 28%)

**Q.** Which Crop_yield (Lepidoptera [1]) does the source give for CNC(=O)Oc1cccc2c1OC(C)(C)C2 [CARBOFURAN] here?
**A.** The Crop_yield was 35%.

**Q.** And the Activity (Lepidoptera [2])?
**A.** Its Activity is 5.14%.

**Q.** And the Activity (Lepidoptera [3])?
**A.** The Activity was 4.15%.

**Q.** What does the source list for CCOP(=S)(OCC)Oc1nc(Cl)c(Cl)cc1Cl [CHLORPYRIFOS]?
**A.** Crop_yield (Lepidoptera [4]): 36%; Activity (Lepidoptera [5]): 6.72%; Crop_yield (Lepidoptera [1]): 37%; Activity (Lepidoptera [2]): 6.18%; Activity (Lepidoptera [6]): 7.26%; Activity (Lepidoptera [3]): 5.39%

**Q.** Which Crop_yield (Lepidoptera [1]) does the source give for CCOP(=O)(/N=C1\SCC(C)S1)OCC (stereo unspecified) [CYTROLANE] here?
**A.** The Crop_yield was 32%.

**Q.** And the Activity (Lepidoptera [2])?
**A.** The Activity was 3.14%.

**Q.** What about the Activity (Lepidoptera [3]) of the same compound?
**A.** The Activity was 3.63%.

**Q.** Which Crop_yield (Lepidoptera [4]) does the source give for CCOP(=S)(OCC)Oc1cc(C)nc(C(C)C)n1 [DIMPYLATE] here?
**A.** The Crop_yield was 42%.

**Q.** What about the Activity (Lepidoptera [5]) of the same compound?
**A.** Its Activity is 3.19%.

**Q.** What about the Activity (Lepidoptera [6]) of the same compound?
**A.** The Activity was 8.14%.

**Q.** How did the Activity (Lepidoptera [7]) turn out when CNC(=O)/C=C(\C)OP(=O)(OC)OC [MONOCROTOPHOS] was run?
**A.** The Activity was 4.76%.

**Q.** And the Activity (Lepidoptera [8])?
**A.** Its Activity is 6.31%.

**Q.** And the Crop_yield (Lepidoptera [9])?
**A.** The Crop_yield was 37%.

**Q.** Which Activity (Lepidoptera [7]) does the source give for CCOP(=S)(OCC)Oc1cnc2ccccc2n1 [QUINALPHOS] here?
**A.** The Activity was 4.12%.

**Q.** And the Activity (Lepidoptera [8])?
**A.** Its Activity is 6.33%.

**Q.** And the Crop_yield (Lepidoptera [9])?
**A.** Its Crop_yield is 28%.
